This passage reports GI50 and TGI results from PubChem BioAssay (NCI).

Where “and” joins values, the source holds several entries; their conditions need not be identical. Identical values can stand only once.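 Step 1: Grow cells in 96-well plates. Step 2: Expose to compound for 48 hours at 5 concentrations. Step 3: Interpolate endpoints linearly; if unreached, use highest concentration. Abbreviation: GI50, concentration required for 50% inhibition of growth. TGI: concentration producing complete growth inhibition.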 Some results are limits rather than exact numbers.

Assay in all cases: growth of human tumour cells (NCI), 48 h
Experiment [1] has as its system 786-0 renal.
Experiment [2] has as its system DU-145 prostate.
The test system of experiment [3] is HS 578T breast.
Experiment [4] concerns IGROV1 ovarian.
Experiment [5] has as its system K-562 leukemia.
Experiment [6] relates to LOX IMVI melanoma.
Experiment [7] relates to NCI-H460 lung.
Experiment [8] relates to SF-268 CNS.

Regarding `Clc1ccc(N=CNc2ccc(-c3nc4ccccc4o3)cc2)cc1`, the GI50 in experiment [1] was 34.6 µM; in experiment [2], 14 µM; in experiment [3] it was 1.89 µM; in experiment [4], 84.2 µM; in experiment [5] it was 32.6 µM; in experiment [6], 12.5 µM. The GI50 in experiment [7] is 17.1 µM; in experiment [8], 12.7 µM. Further, the TGI in experiment [1] was above 100 µM; in experiment [2], 38.2 µM; in experiment [3], 28 µM; in experiment [4], above 100 µM; in experiment [5] it was above 100 µM; in experiment [6], 25.8 µM. The TGI in experiment [7] was determined as 40.3 µM; in experiment [8] it was 39 µM.
Regarding `CCCCCCCCCCCCOC1C(C(CC(=O)NCCN2CCCC2)NS(=O)(=O)c2cc(Cl)cc(Cl)c2)OC2OC(C)(C)OC21` (stereo unspecified), the GI50 was 1.68 µM in experiment [1]; 1.86 µM and 1.79 µM in experiment [2]; 2.23 µM in experiment [3]; 1.95 µM in experiment [4]; 2.34 µM in experiment [5]; 1.9 µM in experiment [6]. Besides, the GI50 in experiment [7] is 1.86 µM and 1.89 µM; in experiment [8], 1.95 µM and 1.97 µM. In addition, the TGI in experiment [1] is 3.27 µM; in experiment [2], 3.45 µM and 3.23 µM; in experiment [3], 4.16 µM; in experiment [4], 3.6 µM; in experiment [5], 4.85 µM; in experiment [6], 3.5 µM. Further, the TGI in experiment [7] was 3.68 µM and 3.73 µM; in experiment [8] it was 3.96 µM and 3.84 µM.
For the molecule `O=C(OCc1ccc2c(Cl)cc(Cl)c(O)c2n1)N1CCN(C(=O)c2cc3cc(F)ccc3[nH]2)CC1`, the GI50 in experiment [1] is 4.3 µM; in experiment [2], 1.94 µM; in experiment [3], 1.13 µM; in experiment [4], 1.99 µM; in experiment [5], 0.825 µM; in experiment [6] it was 0.453 µM. In addition, the GI50 in experiment [7] is 0.918 µM; in experiment [8], 1.56 µM. The TGI in experiment [1] is above 100 µM; in experiment [2], 18.6 µM; in experiment [3], above 100 µM; in experiment [4], above 100 µM; in experiment [5] it was above 100 µM; in experiment [6], above 100 µM. Also, the TGI in experiment [7] and in experiment [8] was above 100 µM each time.
Take `Cc1ccc(Nc2nnc(-c3ccc4c(c3)OCO4)o2)c(C)c1`: the TGI in experiment [1], in experiment [2], in experiment [3], in experiment [4], in experiment [5] and in experiment [6] was above 100 µM throughout. For the same molecule, the TGI in experiment [7] and in experiment [8] was above 100 µM throughout.
As to `O=C(CSC(c1ccccc1)c1ccccc1)N/N=C/c1ccco1`, the GI50 in experiment [1] was 1.83 µM; in experiment [2] it was 2.69 µM; in experiment [3], 2.23 µM; in experiment [5], 2.16 µM; in experiment [6], 1.48 µM; in experiment [7] it was 2.16 µM. Moreover, the GI50 in experiment [8] is 2.25 µM. Moreover, the TGI in experiment [1] is 9.05 µM; in experiment [2], above 4.92 µM; in experiment [3] it was 5.82 µM; in experiment [4], 1.41 µM; in experiment [5], 8.74 µM; in experiment [6], 5.2 µM. Besides, the TGI is 12.8 µM in experiment [7] and above 12.5 µM in experiment [8].
With `O=C(NCc1ccc(S(=O)(=O)c2cc(F)cc(F)c2)cc1)c1ccc2nccn2c1`, the GI50 was 30.7 µM in experiment [1]; 0.0773 µM in experiment [2]; 20.5 µM in experiment [3]; 12.1 µM in experiment [4]; 0.0103 µM in experiment [5]; above 33.7 µM in experiment [6]. Moreover, the GI50 in experiment [7] was 0.514 µM; in experiment [8] it was 28.4 µM. In addition, the TGI was above 100 µM in experiment [1]; above 100 µM in experiment [2]; 80.1 µM in experiment [3]; above 80.4 µM in experiment [4]; above 100 µM in experiment [5]; above 66.8 µM in experiment [6]. Further, the TGI in experiment [7] and in experiment [8] was above 100 µM in each case.
For `O=C(O)C12CC3(C(=O)O)CC(C(=O)O)(CC(C(=O)O)(C1)C3=O)C2=O`, the TGI in experiment [1], in experiment [2], in experiment [3], in experiment [4], in experiment [5] and in experiment [6] was above 100 µM throughout. Besides, the TGI in experiment [7] and in experiment [8] was above 100 µM throughout.
Turning to `C=C1CC[C@@H](C(C)C)C[C@@H]2[C@H]([C@H](O)C[C@]2(C)O)[C@@]2(C)CC[C@@H]1O2`, the GI50 in experiment [1] was 18.8 µM; in experiment [2], 15.8 µM; in experiment [3] it was 31.5 µM; in experiment [4], 17.2 µM; in experiment [5] it was 15.8 µM; in experiment [6], 14.7 µM. Moreover, the GI50 is 16.4 µM in experiment [7] and 16.5 µM in experiment [8]. Moreover, the TGI in experiment [1] worked out at 33.4 µM; in experiment [2], 31.4 µM; in experiment [3], 82.7 µM; in experiment [4] it was 33.4 µM; in experiment [5], 29.2 µM; in experiment [6] it was 27.9 µM. In addition, the results for the TGI in experiment [7] and in experiment [8] were 29.9 µM and 30.1 µM, respectively.
